Consider 1 molecule from article PMC8273890, “Development of [^18F]AldoView as the First Highly Selective Aldosterone Synthase PET Tracer for Imaging of Primary Hyperaldosteronism” (Journal of Medicinal Chemistry, 2021).

Series [1] can be described thus: Ex vivo biodistribution in mice (gamma counting). Also on record: species or system female BALB/c mice. As to the method: [^18F]AldoView (6.6 ± 1.9 MBq, formulated in saline containing 5% ethanol) was administered intravenously into the tail vein of female wild-type BALB/c mice (n = 3–4 per time point) without anesthesia. At designated time points (15, 30, 60, and 120 min postinjection), animals were anesthetized with isoflurane (4% v/v in oxygen) and the blood was taken by cardiac puncture. Mice were subsequently sacrificed by cervical dislocation. The organs of interest were sampled and weighed, and the radioactivity content was measured by automated gamma counting (PerkinElmer Wizard^2). Results were expressed as % ID/g bodyweight.

Series [2] in a line: Blood/plasma metabolite analysis by radio-HPLC. Type of series: in vivo, female BALB/c mice. The protocol:
Blood metabolite analysis was performed as part of the biodistribution studies (n = 2–3 per time point). Blood samples were collected in heparin-coated tubes, and an aliquot (20 μL) was taken for gamma counting. After centrifugation (5 min, 13,000 rpm), the plasma (∼500 μL) was separated. Plasma proteins were subsequently precipitated with ice-cold acetonitrile (1 mL), and samples were centrifuged (5 min, 13,000 rpm). An aliquot of the supernatant (500 μL) was separated from the pellet and diluted with water (500 μL). The recovery of radioactivity in the supernatant was near quantitative (>95%). Analysis was carried out by radio-HPLC using a Phenomenex Onyx monolithic C-18 column (100 × 10 mm). The mobile phase consisted of water and methanol, and the flow rate was 5 mL/min. An isocratic eluent (10% methanol in water) was used for 3 min, followed by a gradient from 10 to 70% methanol over 7 min.

[3] abbreviates: biodistribution, 15 min postinjection.
The mark [4] stands for this setting: biodistribution, 30 min postinjection (peak).

As to `Fc1cc2nc(-c3cncc([18F])c3)n(C3CC3)c2cc1F` [[^18F]AldoView], the “ratio between tracer uptake in adrenals and kidneys” value in series [1] (15 min postinjection) is reported as 1.2. Further, the entries for the “activity level in kidneys” value in series [1] (setting [3]) and in series [1] (setting [4]) were 5.2 ± 3.5 % ID/g and 5.7 ± 2.9 % ID/g, respectively. The results for the “activity level in liver” value in series [1] (setting [3]) and in series [1] (setting [4]) were 11.8 ± 4.1 % ID/g and 12.4 ± 5.9 % ID/g, respectively. For the same molecule, the “activity level in small intestines” value in series [1] (setting [3]) is listed as 4.3 ± 4.7 % ID/g. Besides, the “activity level in adrenals” value in series [1] (biodistribution, 15 min postinjection, n = 2) worked out at 6.1 % ID/g; in series [1] (biodistribution, 30 min postinjection), 4.0 ± 2.5 % ID/g; in series [1] (biodistribution, 60 min postinjection), 1.8 ± 1.1 % ID/g. The “intact parent fraction in blood” value in series [2] (15 min postinjection) came to 59%; in series [2] (30 min postinjection) it was 29%; in series [2] (60 min postinjection) it was 21%. Further, the tracer in blood result in series [2] (120 min postinjection) is given as “still detectable in blood at 120 min, although at low levels”.
